Measurements reported in patent EP0244595A2, “Dihydropyridine derivatives, process for their preparation and their use as pharmaceutical compounds” (Byk Gulden Lomberg Chemische Fabrik GmbH, priority 1986, dated 1987).
Structures can show the parent of a compound that is named as a salt. Where two headings read alike, the source gives them in different places.

Test system: genetisch hypertonen Ratten
Assay: Antihypertensive effect (systolic blood pressure, tail cuff) in spontaneously hypertensive rats after oral dosing
Type: in vivo, Ratte
Conditions: Rattus norvegicus; for change in vivo at 25 µmol/kg: 25 µmol/kg p.o. once daily on four consecutive days; for change in vivo at 10 µmol/kg: 10 µmol/kg p.o. once daily on four consecutive days; for change in vivo at 5 µmol/kg: 5 µmol/kg p.o. once daily on four consecutive days
Text: Die antihypertensive Wirksamkeit der erfindungsgemäßen Verbindungen kann am Modell der spontan hypertonen Ratte nachgewiesen werden.
Zur Bestimmung der antihypertensiven Wirkung werden die unten aufgeführten Verbindungen in den angegebenen Dosen an vier aufeinander folgenden Tagen an je 6 männlichen Ratten (Stamm SHR/N/Ibm/Bm, 250-350 g) mit genetisch bedingtem Hochdruck (systolischer Blutdruck > 180 mmHg) täglich einmal mittels Schlundsonde verabfolgt. Die Messung des Blutdrucks erfolgt jeweils 6 und gegebenenfalls 2 oder 24 Studnen nach Substanzgabe.
Die Blutdruckmessung wird in einer Wärmekammer bei 36°C vorgenommen, um eine bessere Durchblutung der Schwanzarterie zu erreichen. Hierzu werden die Tiere in perforierte Lochblechkäfige verbracht und 20 - 40 Min. nach Beginn der Aufwärmung gemessen. Zur Messung des systolischen arteriellen Drucks wird eine ringförmige Manschette mit aufblasbarer Gummimembran zur Unterbindung der Durchblutung und ein ringförmiger Piezokristallaufnehmer zur Erfassung der Pulswellen auf den Schwanz aufgeschoben. Nach erfolgter Unterbindung des Blutstroms in der Schwanzarterie wird der Manschettendruck kontinuierlich reduziert. Die Wiederkehr der Pulswellen bei Druckablassen wird automatisch als systolischer Blutdruck erkannt und ausgedruckt (Bühler, R. er al." Microprocessor-based automation of blood pressure measurement in the conscious rat. Proceedings of the 4th international symposium on rats with spontaneous hypertension and related studies, Rascher, R. et al. (Eds.), Schattauer Verlag, Stuttgart, New York, 1982, S. 410-413). Pulssignale und Druckverlauf werden zur Auswertung graphisch aufgezeichnet.
Zur Gewöhnung an den Meßvorgang werden die Tiere vor Substanzprüfung 14 Tage trainiert. In der zweiten Trainingswoche werden Blutdruck-Vorwerte erhoben. Tiergruppen, die Substanz erhalten, werden gegen eine Kontrollgruppe geprüft.
In der anschließenden Tabelle werden die untersuchten Verbindungen durch laufende Nummern gekennzeichnet, die mit den jewiligen Beispielnummern übereinstimmen.
Tabelle I gibt für die Vertreter der erfindungsgemäßen Verbindungen die prozentuale Senkung des Blutdrucks (BP) nach oraler Verabreichung bei der Ratte wieder.

[1] = 2h after dosing, mean of days 1+4, male SHR/N/Ibm/Bm rats, N=6, read-out: BP (% Änderung vs. Kontrolle), Mittelwert für Meßzeitpunkte: Stunden nach Gabe (Tage) 2h (1.+4.Tag)
[2] = 6h after dosing, mean of days 1-4, male SHR/N/Ibm/Bm rats, N=6, read-out: BP (% Änderung vs. Kontrolle), Mittelwert für Meßzeitpunkte: Stunden nach Gabe (Tage) 6h (1.-4.Tag)
[3] = 24h after dosing, mean of days 1+3, male SHR/N/Ibm/Bm rats, N=6, read-out: BP (% Änderung vs. Kontrolle), Mittelwert für Meßzeitpunkte: Stunden nach Gabe (Tage) 24h (1.+3.Tag)

| SMILES | change in vivo at 25 µmol/kg [1] | change in vivo at 25 µmol/kg [2] | change in vivo at 25 µmol/kg [3] | change in vivo at 10 µmol/kg [1] | change in vivo at 10 µmol/kg [2] | change in vivo at 10 µmol/kg [3] | further results |
| --- | --- | --- | --- | --- | --- | --- | --- |
| CC1=C(C(=O)OCCCN2CCC(c3ccccc3)(c3ccccc3)CC2)C(c2cccc([N+](=O)[O-])c2)C(C(=O)O[C@@H]2C[C@H](C)CC[C@H]2C(C)C)=C(C)N1 (stereo partly drawn) [Beispiel 1a, 1,4-Dihydro-2,6-dimethyl-4-(3-nitrophenyl)-pyridin-3,5-dicarbonsäure-3-(-)-menthyl-5-[3-(4,4-diphenylpiperidyl-1)-propyl]-ester-hydrochlorid] | -24% | -20% | -15% |  |  |  |  |
| COc1ccccc1N1CCN(CCCOC(=O)C2=C(C)NC(C)=C(C(=O)O[C@@H]3C[C@H](C)CC[C@H]3C(C)C)C2c2cccc(Cl)c2Cl)CC1 (single isomer, unassigned) [Beispiel 21, 4-(2,3-Dichlorphenyl)-1,4-dihydro-2,6-dimethyl-pyridin-3,5-dicarbonsäure-3-(-)-menthyl-5-{3-[4-(2-methoxyphenyl)-1-piperazinyl]-propyl}ester-fumarat] | -50% | -51% | -46% |  |  |  |  |
| CC1=C(C(=O)OCCN2CCCCC2)C(c2cccc([N+](=O)[O-])c2)C(C(=O)O[C@@H]2C[C@H](C)CC[C@H]2C(C)C)=C(C)N1 (single isomer, unassigned) [Beispiel 23, 1,4-Dihydro-2,6-dimethyl-4-(3-nitrophenyl)-pyridin-3,5-dicarbonsäure-3-(-)-menthyl-5-[2-(1-piperidinyl)-ethyl]-ester-fumarat] | -17% | -26% | 4% |  |  |  |  |
| CC1=C(C(=O)OCCCN2CCN(C(c3ccccc3)c3ccccc3)CC2)C(c2cccc([N+](=O)[O-])c2)C(C(=O)O[C@@H]2C[C@H](C)CC[C@H]2C(C)C)=C(C)N1 (single isomer, unassigned) [Beispiel 13, 1,4-Dihydro-2.6-dimethyl-4-(3-nitrophenyl)-pyridin-3,5-dicarbonsäure-3-(-)-menthyl-5-[3-(4-benzhydryl-1-piperazinyl)-propyl]-ester-semifumarat] | -30% | -40% | -35% |  |  |  |  |
| COc1ccccc1N1CCN(CCOC(=O)C2=C(C)NC(C)=C(C(=O)O[C@@H]3C[C@H](C)CC[C@H]3C(C)C)C2c2cccc([N+](=O)[O-])c2)CC1 (single isomer, unassigned) [Beispiel 9, 1,4-Dihydro-2,6-dimethyl-4-(3-nitrophenyl)-pyridin-3,5-dicarbonsäure-3-(-)-menthyl-5-{2-[4-(2-methoxyphenyl)1-piperazinyl]-ethyl}-ester] |  |  |  | -22% | -32% | -4% |  |
| CCOc1ccccc1N1CCN(CCCOC(=O)C2=C(C)NC(C)=C(C(=O)O[C@@H]3C[C@H](C)CC[C@H]3C(C)C)C2c2cccc([N+](=O)[O-])c2)CC1 (single isomer, unassigned) [Beispiel 11, 1,4-Dihydro-2,6-dimethyl-4-(3-nitrophenyl)-pyridin-3,5-dicarbonsäure-3-(-)-menthyl-5-{3-[4-(2-ethoxyphenyl)-1-piperazinyl]-propyl}ester-fumarat] |  |  |  | -21% | -26% | -10% |  |
| CC1=C(C(=O)OCCCN2CCN(c3ccc(C)cc3C)CC2)C(c2cccc([N+](=O)[O-])c2)C(C(=O)O[C@@H]2C[C@H](C)CC[C@H]2C(C)C)=C(C)N1 (single isomer, unassigned) [Beispiel 18, 1,4-Dihydro-2,6-dimethyl-4-(3-nitrophenyl)-pyridin-3,5-dicarbonsäure-3-(-)-menthyl-5-{3-[4-(2,4-dimethylphenyl)-1-piperazinyl]-propyl}-ester-fumarat] |  |  |  | -15% | -18% | -3% |  |
| CC1=C(C(=O)OCCN2CCN(c3ccccc3)CC2)C(c2cccc([N+](=O)[O-])c2)C(C(=O)O[C@@H]2C[C@H](C)CC[C@H]2C(C)C)=C(C)N1 (stereo partly drawn) [Beispiel 4a, 1,4-Dihydro-2,6-dimethyl-4-(3-nitrophenyl)-pyridin-3,5-dicarbonsäure-3-(-)-menthyl-5-[2-(4-phenyl-1-piperazinyl)-ethyl]ester-fumarat] |  |  |  |  |  |  | change in vivo at 5 µmol/kg [1]: -34%; change in vivo at 5 µmol/kg [2]: -23%; change in vivo at 5 µmol/kg [3]: -14% |
| CC1=C(C(=O)OCCCN(C)Cc2ccccc2)C(c2cccc([N+](=O)[O-])c2)C(C(=O)O[C@@H]2C[C@H](C)CC[C@H]2C(C)C)=C(C)N1 (single isomer, unassigned) [Beispiel 6] | -27% | -33% | -10% |  |  |  |  |
| CC1=C(C(=O)OCCCN2CCC(C(=O)c3ccc(F)cc3)CC2)C(c2cccc([N+](=O)[O-])c2)C(C(=O)O[C@@H]2C[C@H](C)CC[C@H]2C(C)C)=C(C)N1 (single isomer, unassigned) [Beispiel 7, 1,4-Dihydro-2,6-dimethyl-4-(3-nitrophenyl)-pyridin-3,5-dicarbonsäure-3-(-)-menthyl-5-{3-[4-(4-fluorbenzoyl)-piperidyl-1]-propyl}-ester-hydrochlorid] |  |  |  | -12% | -11% | 5% |  |
| COc1cccc(N2CCN(CCCOC(=O)C3=C(C)NC(C)=C(C(=O)O[C@@H]4C[C@H](C)CC[C@H]4C(C)C)C3c3cccc([N+](=O)[O-])c3)CC2)c1 (single isomer, unassigned) [Beispiel 15, 1,4-Dihydro-2,6-dimethyl-4-(3-nitrophenyl)-pyridin-3,5-dicarbonsäure-3-(-)-menthyl-5-{3-[4-(3-methoxyphenyl)-1-piperazinyl]-propyl}-ester-fumarat] |  |  |  | -14% | -7% | -4% |  |
